The target of one test is T1, RIPK1 (Homo sapiens, UniProt Q13546).
T1 construct: purchased Eurofins 16-022
T1 sequence (Q13546 1-671): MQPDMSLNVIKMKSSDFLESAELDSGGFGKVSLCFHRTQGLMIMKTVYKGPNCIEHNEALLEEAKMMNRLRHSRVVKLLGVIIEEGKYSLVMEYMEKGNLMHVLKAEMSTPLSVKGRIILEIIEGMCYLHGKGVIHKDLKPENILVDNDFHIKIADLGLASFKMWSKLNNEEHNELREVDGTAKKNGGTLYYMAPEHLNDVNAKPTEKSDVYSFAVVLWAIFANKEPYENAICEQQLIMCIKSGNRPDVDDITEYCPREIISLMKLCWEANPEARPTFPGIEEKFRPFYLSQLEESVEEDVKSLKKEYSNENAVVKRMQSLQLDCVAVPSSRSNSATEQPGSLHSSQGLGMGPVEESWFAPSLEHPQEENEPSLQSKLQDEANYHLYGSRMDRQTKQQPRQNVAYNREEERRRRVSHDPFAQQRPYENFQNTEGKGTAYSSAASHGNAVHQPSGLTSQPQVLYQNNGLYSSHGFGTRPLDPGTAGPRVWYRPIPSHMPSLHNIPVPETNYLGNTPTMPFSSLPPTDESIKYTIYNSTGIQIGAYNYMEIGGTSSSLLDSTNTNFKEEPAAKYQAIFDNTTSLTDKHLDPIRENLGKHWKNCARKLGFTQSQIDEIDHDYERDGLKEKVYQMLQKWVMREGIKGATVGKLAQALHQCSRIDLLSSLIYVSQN
Briefly: Inhibitory activity against RIPK1 enzyme, P33-ATP / MBP substrate radiometric assay. The class given is biochemical. Particulars: 36 nM RIPK1, 0.33 mg/mL MBP, 155 μM P33 ATP, 2 hours room temperature. The method, then:
(§1) The U937 cell line used in the following test examples was derived from ATCC, No.: CRL-1593.2, batch No.: 63479999, culture medium: RPMI-1640+10% FBS. The L929 cell line used in the following test examples was derived from ATCC, No.: CCL-1, batch No.: 70001022, culture medium: MEM+10% FBS+1% PS. […]
The test compound was dissolved in DMSO to prepare a 10 mM stock solution, and diluted 3.16-fold with DMSO to a series of gradient concentrations. […] The final reaction system was detected using a liquid scintillation counter after treatment. The result after detection was subtracted from the blank control and converted to the percentage of activity compared with the reading of the control group. […]

The test system of another test is U937 cells. Briefly: Inhibition of TNF-α-induced programmed cell necrosis (necroptosis) in U937 cells, CellTiter-Glo. The class given is cell-based. The settings on record: U-937, human TNF-α + Q-VD-Oph, 48 hours, read-out: inhibitory IC50 against programmed necroptosis of cells induced by TNF-α. From the text: The U937 cell line used in the following test examples was derived from ATCC, No.: CRL-1593.2, batch No.: 63479999, culture medium: RPMI-1640+10% FBS. The L929 cell line used in the following test examples was derived from ATCC, No.: CCL-1, batch No.: 70001022, culture medium: MEM+10% FBS+1% PS. The reagents used, their suppliers, and item numbers are as follows: RPMI-1640, Gibco, 11875-093; FBS, Gibco, 10099-141; Trypsin-EDTA, Gibco, 25200-072; PS, Gibco, 15140-122; CellTiter Glo, Promega, G7573; DMSO, VWR AMRESCO, 0231-500ML; TNF-α protein (human, recombinant), Peprotech, 300-01A; Q-VD-Oph, MCE, HY-12305; V-bottom plate, Corning, 3894; 384-well low flange white flat bottom microplate, Corning, 3570; RIPK1, Eurofins, 16-022; MOPS, BDH, 441644J; EDTA, Sigma, E5134; myelin basic protein, Sigma, M1891-25.00 MG; magnesium acetate, Merck, DU008026; ATP (non-radioactive labelled), Sigma, A-7699; ATP (radioactive labelled), Hartmann Analytic, DU008054; phosphoric acid, Metlab, DU003000; Z-VAD: Shanghai Twochem, YA02401.
The test compound was dissolved in DMSO and diluted to a series of concentration gradients with DMSO. […] After sufficient lysis reaction, the chemiluminescence readings were recorded by a microplate reader. The survival rate was calculated from the detection results using the equation as follows: SR (%)=(RLU compound−RLU blank)/(RLU high control−RLU blank)×100%. […]
In general terms: In ATP-based viability assays light output follows the ATP content of the culture.

Another test relates to L929 cells. The test is described as follows: Inhibition of TNF-α-induced programmed necrosis of L929 cells, CellTiter-Glo. The class given is cell-based. Particulars: 30 ng/mL mouse TNF-α + 15 μM Z-VAD, 6 hours, read-out: inhibitory IC50 against programmed necroptosis of cells induced by TNF-α. Here is the method: as §1
The compound was dissolved in DMSO to prepare a 10 mM stock solution and diluted 3.16-fold with DMSO to a series of gradient concentrations. […] After sufficient lysis reaction, the chemiluminescence readings were recorded by a microplate reader. The survival rate was calculated from the detection results using the equation as follows: SR (%)=(RLU compound−RLU blank)/(RLU high control−RLU blank)×100%. […]

In general, IC50 refers to the concentration that gives 50% inhibition. Turning to `Nc1nc2cc(-c3cnc4c(c3)C(=O)N(Cc3cc(OC(F)(F)F)ccc3F)CC4)ccn2n1` [compound of formula I, 3-(2-amino-[1,2,4]triazolo[1,5-a]pyridin-7-yl)-6-(2-fluoro-5-(trifluoromethoxy)benzyl)-7,8-dihydro-1,6-naphthyridin-5(6H)-one], the IC50 came out at 39 nM on RIPK1, 6 nM with U937 cells and 3 nM in the test with L929 cells.

Values taken from patent publication US20240352040A1, “CRYSTAL FORM OF RIPK1 INHIBITOR, ACID SALT THEREOF, AND CRYSTAL FORM OF ACID SALT THEREOF” (GENFLEET THERAPEUTICS (SHANGHAI) INC., priority 2021, published 2024).
